Reference: patent US20090036497A1, “ECTOPARASITE CONTROL METHOD” (priority 2007, published 2009)

Legend:
adult H. irritans exigua = assay: Adult H. irritans exigua feeding assay (blood meal assay); type: in vivo
Experimental: Adult H. irritans exigua Feeding Assay
A blood meal assay was used to determine the LC50 for test compound (3-bromo-1-(3-chloro-2-pyridinyl)-N-[4-cyano-2-methyl-6-[(methylamino)carbonyl]phenyl]-1H-pyrazole-5-carboxamide) on adult H.irritans exigua. Six (6) serial dilutions of the test compound were prepared in decoagulated bovine blood that was stored refrigerated. Ivermectin was included as a positive control compound and a negative control was included in each assay. Flies were collected with a net immediately before each assay from yarded commercial cattle. About 100 adults were introduced into a mesh cage (30×30×30 cm) containing one cotton gauze (4×4×1 cm) soaked in one blood/insecticide concentration. There were 3 replicate cages of each blood/insecticide concentration. Blood gauzes were replaced every 12 hours. The untreated control cages received untreated decoagulated blood. All cages were labelled and stored for 72 hours at 25-27° C. in the dark at ambient relative humidity (70-85%). […] Data was subjected to log-probit analysis to determine the LC50 if there is a dose response in the assay.

[1] = test system: cat flea (Ctenocephalides felis Bouche); assay: In vivo evaluation against artificial infestations with cat fleas on mice; settings: CD-1 mouse, 10 mg/kg oral in propylene glycol/glycerol formal (60:40), fleas applied 2 hours after dosing, evaluated 48 hours after flea application
Experimental: In vivo Evaluation Against Artificial Infestations With Cat Fleas (C. felis) on Mice
For evaluating control of the cat flea (Ctenocephalides felis Bouche), a CD-1® mouse (about 30 g, male, obtained from Charles River Laboratories, Wilmington, Mass.) was orally dosed with test compound in an amount of 10 mg/kg solubilized in propylene glycol/glycerol formal (60:40). Two hours after oral administration of the test compound, approximately 8 to 16 adult fleas were applied to each mouse. The fleas were then evaluated for mortality 48 hours after flea application to the mouse. 3-bromo-1-(3-chloro-2-pyridinyl)-N-[4-cyano-2-methyl-6-[(methylamino)carbonyl]phenyl]-1H-pyrazole-5-carboxamide caused 45% mortality.

[2] = test system: Brown Dog Ticks (R. sanguineus); assay: In vivo evaluation against artificial infestations with brown dog ticks on dogs; settings: for Tick efficacy (%) compared to the untreated control: topical line-on, test compound 60 mg/kg in NMP
Text: (§1) In vivo evaluation Against Artificial Infestations With Cat Fleas (C. felis) and Brown Dog Ticks (R. sanguineus) on Dogs
(§2) Twenty five dogs were used in this study that investigated the efficacy of test compound (3-bromo-1-(3-chloro-2-pyridinyl)-N-[4-cyano-2-methyl-6-[(methylamino)carbonyl]phenyl]-1H-pyrazole-5-carboxamide) against fleas and ticks. Two groups (one treated and one untreated) of five dogs were used to evaluate the flea efficacy whilst two groups of five dogs (one treated and one untreated) were used to investigate the tick efficacy. The dogs in the respective groups were infested weekly with 40 unfed adult ticks and 100 cat fleas. One group was treated with ADVANTIX and served as a positive control. The dogs in this group were infested simultaneously with fleas and ticks. Test compound was formulated in NMP. The treatment was applied topically via syringe on the dorsal line of the animals as a line-on at 60 mg/kg dose rate. The efficacy of the compound was assessed by weekly tick and flea counts. The weekly counts generated in the treated groups were compared to the positive and negative untreated control (UTC) group counts to evaluate efficacy of Test compound.

Cat Fleas (C. felis) = assay: In vivo evaluation against artificial infestations with cat fleas on dogs; settings: for Flea efficacy compared to the untreated control: topical line-on (test compound 60 mg/kg in NMP); for Flea efficacy (%) compared to the untreated control: topical line-on, test compound 60 mg/kg in NMP
Text: as §1, §2

[3] = 200 ppb in bovine blood, exposure time 7 hr
[4] = 200 ppb in bovine blood, exposure time 17 hr
[5] = 200 ppb in bovine blood, exposure time 24 hr
[6] = 400 ppb in bovine blood, exposure time 7 hr
[7] = 400 ppb in bovine blood, exposure time 17 hr
[8] = 400 ppb in bovine blood, exposure time 24 hr
[9] = 600 ppb in bovine blood, exposure time 7 hr
[10] = 600 ppb in bovine blood, exposure time 17 hr
[11] = 600 ppb in bovine blood, exposure time 24 hr

Molecule: 22,23-dihydroavermectin B1 [Ivermectin, reference compound]
- % Adult mortality (adult H. irritans exigua; [3]): 78.5%
- % Adult mortality (adult H. irritans exigua; [4]): 91.8%
- % Adult mortality (adult H. irritans exigua; [5]): 93.1%
- % Adult mortality (adult H. irritans exigua; [6]): 80.1%
- % Adult mortality (adult H. irritans exigua; [7]): 94.2%
- % Adult mortality (adult H. irritans exigua; [8]): 98.0%
- % Adult mortality (adult H. irritans exigua; [9]): 86.0%
- % Adult mortality (adult H. irritans exigua; [10]): 95.5%
- % Adult mortality (adult H. irritans exigua; [11]): 100.0%

Molecule: CNC(=O)c1cc(C#N)cc(C)c1NC(=O)c1cc(Br)nn1-c1ncccc1Cl [Test compound, 3-bromo-1-(3-chloro-2-pyridinyl)-N-[4-cyano-2-methyl-6-[(methylamino)carbonyl]phenyl]-1H-pyrazole-5-carboxamide]
- flea mortality [1]: 45%
- Tick efficacy higher than the ADVANTIX ([2]; 48 hours after treatment, difference to ADVANTIX): 30%
- Tick efficacy compared to the negative control ([2]; topical line-on (test compound 60 mg/kg in NMP), 48 hours after treatment): 74%
- Tick efficacy compared to the untreated control ([2]; topical line-on (test compound 60 mg/kg in NMP), 9 days post-treatment): over 94.9%
- Tick efficacy compared to the untreated control ([2]; topical line-on (test compound 60 mg/kg in NMP), 16 days post-treatment): 90.5%
- Tick efficacy compared to the untreated control ([2]; topical line-on (test compound 60 mg/kg in NMP), 23 days post-treatment): 90.6%
- Tick efficacy compared to the untreated control ([2]; topical line-on (test compound 60 mg/kg in NMP), 30 days post treatment): 86.2%
- Tick efficacy (%) compared to the untreated control ([2]; Day 2): 74.0%
- Tick efficacy (%) compared to the untreated control ([2]; Day 9): 94.9%
- Tick efficacy (%) compared to the untreated control ([2]; Day 16): 95.0%
- Tick efficacy (%) compared to the untreated control ([2]; Day 23): 90.6%
- Tick efficacy (%) compared to the untreated control ([2]; Day 29): 86.2%
- % Adult mortality (adult H. irritans exigua; [3]): 77.3%
- % Adult mortality (adult H. irritans exigua; [4]): 78.8%
- % Adult mortality (adult H. irritans exigua; [5]): 80.3%
- % Adult mortality (adult H. irritans exigua; [6]): 78.8%
- % Adult mortality (adult H. irritans exigua; [7]): 89.8%
- % Adult mortality (adult H. irritans exigua; [8]): 94.9%
- % Adult mortality (adult H. irritans exigua; [9]): 80.5%
- % Adult mortality (adult H. irritans exigua; [10]): 94.7%
- % Adult mortality (adult H. irritans exigua; [11]): 96.5%
- Flea efficacy compared to the untreated control (Cat Fleas (C. felis); 2 days post-treatment): over 99.5%
- Flea efficacy compared to the untreated control (Cat Fleas (C. felis); 9 days post-treatment): over 99.5%
- Flea efficacy compared to the untreated control (Cat Fleas (C. felis); 16 days post-treatment): over 99.5%
- Flea efficacy compared to the untreated control (Cat Fleas (C. felis); 30 days post-treatment): 97.3%
- Flea efficacy (%) compared to the untreated control (Cat Fleas (C. felis); Day 2): 99.6%
- Flea efficacy (%) compared to the untreated control (Cat Fleas (C. felis); Day 9): 99.7%
- Flea efficacy (%) compared to the untreated control (Cat Fleas (C. felis); Day 16): 99.7%
- Flea efficacy (%) compared to the untreated control (Cat Fleas (C. felis); Day 23): 98.7%
- Flea efficacy (%) compared to the untreated control (Cat Fleas (C. felis); Day 29): 97.3%
